From patent US8367328B2, “Method for synthesizing DNA” (Takara Bio Inc., priority 1998, dated 2013)

Target: T1, KOD DNA Polymerase (Thermococcus kodakarensis, UniProt P77933, DEL407-766/DEL852-1388)
T1 construct: purchased TOYOBO CO., LTD
Assay: PCR with KOD DNA Polymerase (α-type) in the presence of acidic substances
Type: biochemical, Pyrococcus sp.
Details: 10 kb fragment, 100 pg λDNA, 30 cycles 98°C 5 s–68°C 3 min
Description: (1) Using sodium alginate, sodium hyaluronate (manufactured by Seikagaku Kogyo), or κ carrageenan (manufactured by Sigma), the effects of these acidic substances on α-type DNA polymerase were examined. A reaction mixture comprising λDNA as a template, primers λ1 and λ8 as a primer pair, and KOD DNA Polymerase (manufactured by TOYOBO CO., LTD.) as DNA polymerase was prepared, and PCR was carried out. The composition of the reaction mixture is as follows. Composition of Reaction Mixture: KOD DNA Polymerase Buffer I (manufactured by TOYOBO CO., LTD.) 0.2 mM each of dATP, dCTP, dGTP and dTTP, 0.625 U of KOD DNA Polymerase, 100 pg of λDNA, and 5 pmol each of primers λ1 and λ8 (a final volume being 25 μl). Further, 1 μg or 2.5 μg of sodium alginate, 0.1 μg or 0.5 μg of sodium hyaluronate, or 0.1 μg or 0.25 μg of κ carrageenan was respectively added to the above reaction mixture.
The reaction in 30 cycles was carried out for each of these reaction mixtures, wherein one cycle of reaction comprises a process consisting of 98° C., 5 seconds—68° C., 3 minutes. Thereafter, 5 μl of the resulting reaction mixture was subjected to electrophoresis on 1% agarose gel containing ethidium bromide in an amount of 0.00005%, whereby an amplified fragment was confirmed.
(2) The effects on α-type DNA polymerase were also examined in the same manner as in item (1) above for sodium alginate, κ carrageenan, sodium heparan sulfate (manufactured by Sigma), sodium dermatan sulfate (manufactured by Sigma), potassium polyvinyl sulfate (manufactured by nacalaitesque) or sodium polystyrenesulfonate (two kinds: average molecular weights of 5,400 and 35,000, all manufactured by nacalaitesque). A reaction mixture comprising λDNA as a template, primers λ1 and λ8 as a primer pair, and KOD DNA Polymerase as DNA polymerase was prepared, and PCR was carried out. The composition of the reaction mixture is as follows. Composition of Reaction Mixture: KOD DNA Polymerase Buffer II (manufactured by TOYOBO CO., LTD.) 0.2 mM each of dATP, dCTP, dGTP and dTTP, 1.25 U of KOD DNA Polymerase, 100 pg of λDNA, and 10 pmol each of primers λ1 and λ8 (a final volume being 50 μl). Further, 2.5 μg or 5 μg of sodium alginate, 0.25 μg or 0.5 μg of κ carrageenan, or 125 ng, 250 ng or 375 ng of sodium dermatan sulfate, 500 ng of sodium heparan sulfate, 10 ng of potassium polyvinyl sulfate, 2.5 ng or 5 ng of sodium polystyrenesulfonate (average molecular weight: 5,400), or 5 ng of sodium polystyrenesulfonate (average molecular weight: 35,000) was respectively added to the above reaction mixture.

T1 sequence (P77933 other isoform, or with tags, fused parts or gaps DEL407-766/DEL852-1388): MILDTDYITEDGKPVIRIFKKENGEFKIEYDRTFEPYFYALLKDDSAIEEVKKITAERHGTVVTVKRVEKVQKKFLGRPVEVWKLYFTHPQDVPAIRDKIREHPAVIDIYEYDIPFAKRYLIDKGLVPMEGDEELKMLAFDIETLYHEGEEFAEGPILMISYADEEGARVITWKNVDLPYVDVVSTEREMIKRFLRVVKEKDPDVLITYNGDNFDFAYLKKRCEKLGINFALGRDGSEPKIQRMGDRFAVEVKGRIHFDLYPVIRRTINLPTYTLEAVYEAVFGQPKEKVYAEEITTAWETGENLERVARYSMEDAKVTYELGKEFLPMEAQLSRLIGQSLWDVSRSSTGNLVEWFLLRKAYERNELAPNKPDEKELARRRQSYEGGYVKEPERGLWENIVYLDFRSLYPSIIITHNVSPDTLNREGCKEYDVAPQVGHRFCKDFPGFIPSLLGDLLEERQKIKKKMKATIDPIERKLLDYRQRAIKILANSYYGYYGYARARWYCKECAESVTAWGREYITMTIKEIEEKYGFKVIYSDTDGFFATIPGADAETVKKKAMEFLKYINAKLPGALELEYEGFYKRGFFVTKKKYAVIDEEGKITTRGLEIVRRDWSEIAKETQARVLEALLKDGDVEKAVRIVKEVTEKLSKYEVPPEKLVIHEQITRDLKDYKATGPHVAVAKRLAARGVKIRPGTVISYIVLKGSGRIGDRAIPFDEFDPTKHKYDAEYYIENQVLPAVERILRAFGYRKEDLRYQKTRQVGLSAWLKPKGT

In the case of sodium alginate, the “Amplification Results” value (Buffer I, 0.625 U KOD, primers λ1/λ8, 25 μl, amount added 1 μg) is reported as “++ (Intensive amplification being observed)”, the “Amplification Results” value (Buffer I, 0.625 U KOD, primers λ1/λ8, 25 μl, amount added 2.5 μg) is reported as “++ (Intensive amplification being observed)” and the “Amplification Results” value (Buffer II, 1.25 U KOD, primers λ1/λ8, 50 μl, amount added 2.5 μg) is reported as “++ (Intensive amplification being observed)”. The “Amplification Results” value (Buffer II, 1.25 U KOD, primers λ1/λ8, 50 μl, amount added 5 μg) was “++ (Intensive amplification being observed)”.
